{"source": "patent US9968614B2", "about": "“Aprepitant injectable formulations” (InnoPharma, Inc., priority 2012, dated 2018)", "key": {"[1]": {"test": "Solubility of aprepitant in ethanol with the balance water", "format": "physicochemical", "description": "Thus, while the above approaches using complexing agents and/or co-solvents led to a soluble form of aprepitant in at least some instances, concentration of aprepitant is relatively low, and aprepitant tends to precipitate out upon further dilution. As is already known in the art, solubility of aprepitant increases exponentially with increasing concentration of ethanol as shown in Table 1 in the background section. Moreover, maximum allowed concentrations of ethanol in a drug formulation are typically at or below 49 volume %. […] Moreover, and as already noted above, an ethanol/water solvent system is not suitable for injection as aprepitant will rapidly precipitate upon dilution at the injection site."}, "[2]": {"test": "Solubility of aprepitant in aqueous surfactant solutions", "format": "physicochemical", "details": "water alone as solvent", "description": "However, in a typical injectable formulation at Polysorbate 80 concentration of 10% w/v, it would require 7 grams of surfactant, and at Polysorbate 80 concentration of 30% w/v, it would require 9 grams of surfactant to solubilize the aprepitant. Unfortunately, such high quantities of surfactant are entirely unsuitable for injectable formulations (e.g., due to hypersensitivity issues related to polysorbate, foam formation during mixing, etc.). Table 2 below illustrates typical solubility data for aprepitant using water alone as solvent."}, "[3]": {"test": "Solubility of aprepitant in water or ethanol/water with polysorbate 80", "format": "physicochemical", "description": "The inventors further tested whether co-solvents (i.e., solvents in addition to water) in combination with surfactants would improve solubility of aprepitant. […] In most preferred aspects, a relatively low concentration of nonionic surfactant was chosen in a co-solvent mixture of ethanol and water, and Tables 3-5 below exemplarily illustrate the results of such combination.\nMore specifically, Table 3 depicts solubility results of aprepitant in water without ethanol at surfactant concentrations noted in the table.\nLikewise, Table 4 depicts solubility results of aprepitant in an ethanol/water mixture of (30 vol % EtOH, 70 vol % H2O) at surfactant concentrations noted in the table, and Table 5 depicts solubility results of aprepitant in an ethanol/water mixture of (55 volume % EtOH, 45 vol % H2O) at surfactant concentrations noted in the table."}, "[4]": {"test": "Solubility of aprepitant in polysorbate 80 solutions after pre-solubilisation in DMAC", "format": "physicochemical", "description": "The inventors also tested whether solubility of aprepitant in aqueous polysorbate 80 solutions could be improved when aprepitant was pre-solubilized in a secondary solvent (e.g., dimethylacetamide (DMAC)). […] Remarkably, when the inventors directly added 200 μL of DMAC solubilized in 10 mL of water to 100 mg aprepitant (i.e., without surfactant), aprepitant was not detected in the solution phase."}, "[5]": {"test": "Solubilization of aprepitant by pH (pKa, pH-dependent solubility)", "format": "physicochemical", "description": "Indeed, to be soluble in aqueous solution, a pH of greater than 11.7 is required. However, a formulation with such a high pH is not suitable for injection. Moreover, the instant such a formulation is diluted in blood, the pH will change to about pH 7.4, which will lead to rapid precipitation of the drug. […] Similar problems were also encountered where aprepitant is dissolved in a water/ethanol solvent mixture where ethanol is at about 50 volume 9 concentration. Here, dilution that would occur at the injection site would lead to precipitation of the drug and so might lead to chemo-embolism."}, "[6]": {"details": "cited from earlier work"}, "[7]": {"details": "cited from earlier work", "remark": "listed apart in the source"}, "[8]": {"details": "given orally, nanoparticulate composition; cited from earlier work"}, "[9]": {"details": "IV infusion; cited from earlier work"}, "[10]": {"details": "prevention and control of acute and delayed chemotherapy induced nausea and vomiting; cited from earlier work"}}, "note": "Where two headings read alike, the source gives them in different places."}
{"compound": "C[C@@H](O[C@H]1OCCN(Cc2nc(=O)[nH][nH]2)[C@H]1c1ccc(F)cc1)c1cc(C(F)(F)F)cc(C(F)(F)F)c1", "note": "[Aprepitant, 5-([(2R,3S)-2((R)-1-[3,5-bis(trifluoromethyl)phenyl]ethoxy)-3-(4-fluoro-phenyl)morpholino]methyl)-1H-1,2,4-triazol-3(2H)-one]", "values": [{"measurement": "Aprepitant Conc.", "setting": "[1]; Ethanol Conc. (v/v) 10, balance water", "result": 0.0001, "unit": "mg/mL"}, {"measurement": "Aprepitant Conc.", "setting": "[1]; Ethanol Conc. (v/v) 30, balance water", "result": 0.0232, "unit": "mg/mL"}, {"measurement": "Aprepitant Conc.", "setting": "[1]; Ethanol Conc. (v/v) 50, balance water", "result": 1.76, "unit": "mg/mL"}, {"measurement": "Aprepitant Conc.", "setting": "[1]; Ethanol Conc. (v/v) 55, balance water", "result": 3.30, "unit": "mg/mL"}, {"measurement": "Aprepitant Conc.", "setting": "[1]; Ethanol Conc. (v/v) 60, balance water", "result": 5.1, "unit": "mg/mL"}, {"measurement": "Aprepitant Conc.", "setting": "[1]; Ethanol Conc. (v/v) 70, balance water", "result": 12.8, "unit": "mg/mL"}, {"measurement": "Aprepitant Conc.", "setting": "[1]; Ethanol Conc. (v/v) 90, balance water", "result": 21.8, "unit": "mg/mL"}, {"measurement": "Aprepitant Conc.", "setting": "[2]; Cremophor RH 40 10 % w/v", "result": 1.24, "unit": "mg/mL"}, {"measurement": "Aprepitant Conc.", "setting": "[2]; Cremophor RH 40 30 % w/v", "result": 3.51, "unit": "mg/mL"}, {"measurement": "Aprepitant Conc.", "setting": "[2]; Cremophor RH 60 10 % w/v", "result": 1.24, "unit": "mg/mL"}, {"measurement": "Aprepitant Conc.", "setting": "[2]; Poloxamer 188 30 % w/v", "result": 1.24, "unit": "mg/mL"}, {"measurement": "Aprepitant Conc.", "setting": "[2]; Polysorbate 80 10 % w/v", "result": 1.85, "unit": "mg/mL"}, {"measurement": "Aprepitant Conc.", "setting": "[2]; Polysorbate 80 30 % w/v", "result": 4.42, "unit": "mg/mL"}, {"measurement": "Aprepitant Conc.", "setting": "[3]; 30 vol % EtOH, 70 vol % H2O, Polysorbate 80 11 mg/mL", "result": 0.560, "unit": "mg/mL"}, {"measurement": "Aprepitant Conc.", "setting": "[3]; 30 vol % EtOH, 70 vol % H2O, Polysorbate 80 44 mg/mL", "result": 0.793, "unit": "mg/mL"}, {"measurement": "Aprepitant Conc.", "setting": "[3]; 30 vol % EtOH, 70 vol % H2O, no Polysorbate 80", "result": 0.0232, "unit": "mg/mL"}, {"measurement": "Aprepitant Conc.", "setting": "[3]; 55 volume % EtOH, 45 vol % H2O, Polysorbate 80 11 mg/mL", "result": 1.936, "unit": "mg/mL"}, {"measurement": "Aprepitant Conc.", "setting": "[3]; 55 volume % EtOH, 45 vol % H2O, Polysorbate 80 22 mg/mL", "result": 3.309, "unit": "mg/mL"}, {"measurement": "Aprepitant Conc.", "setting": "[3]; 55 volume % EtOH, 45 vol % H2O, Polysorbate 80 44 mg/mL", "result": 4.182, "unit": "mg/mL"}, {"measurement": "Aprepitant Conc.", "setting": "[3]; 55 volume % EtOH, 45 vol % H2O, no Polysorbate 80", "result": 3.3, "unit": "mg/mL"}, {"measurement": "Aprepitant Conc.", "setting": "[3]; water without ethanol, Polysorbate 80 11 mg/mL", "result": 0.179, "unit": "mg/mL"}, {"measurement": "Aprepitant Conc.", "setting": "[3]; water without ethanol, Polysorbate 80 22 mg/mL", "result": 0.308, "unit": "mg/mL"}, {"measurement": "Aprepitant Conc.", "setting": "[3]; water without ethanol, Polysorbate 80 44 mg/mL", "result": 0.505, "unit": "mg/mL"}, {"measurement": "aprepitant in the solution phase", "setting": "[4]; 200 μL DMAC in 10 mL water added directly to 100 mg aprepitant, without surfactant", "result": "not detected"}, {"measurement": "Aprepitant Conc.", "setting": "[4]; Directly Added, Polysorbate 80 10 % w/v", "result": 1.85, "unit": "mg/mL"}, {"measurement": "Aprepitant Conc.", "setting": "[4]; Directly Added, Polysorbate 80 30 % w/v", "result": 4.42, "unit": "mg/mL"}, {"measurement": "Aprepitant Conc.", "setting": "[4]; Prior Solubilization in DMAC, Polysorbate 80 5 % w/v", "result": 0.85, "unit": "mg/mL"}, {"measurement": "Aprepitant Conc.", "setting": "[4]; Prior Solubilization in DMAC, Polysorbate 80 10 % w/v", "result": 2.03, "unit": "mg/mL"}, {"measurement": "Aprepitant Conc.", "setting": "[4]; Prior Solubilization in DMAC, Polysorbate 80 15 % w/v", "result": 3.13, "unit": "mg/mL"}, {"measurement": "Aprepitant Conc.", "setting": "[4]; Prior Solubilization in DMAC, Polysorbate 80 20 % w/v", "result": 4.35, "unit": "mg/mL"}, {"measurement": "Aprepitant Conc.", "setting": "[4]; Prior Solubilization in DMAC, Polysorbate 80 30 % w/v", "result": 4.80, "unit": "mg/mL"}, {"measurement": "pH required to be soluble in aqueous solution", "setting": "[5]; aqueous solution", "result": "greater than 11.7"}, {"measurement": "solubility in concentrated formic acid", "setting": "[5]; concentrated formic acid", "result": "soluble"}, {"measurement": "behaviour on dilution of formic acid solution", "setting": "[5]; twofold dilution with aqueous medium", "result": "precipitated almost immediately"}, {"measurement": "pka", "setting": "[6]", "result": 9.7}, {"measurement": "solubility (descriptive)", "setting": "[7]; acetonitrile", "result": "slightly soluble"}, {"measurement": "solubility (descriptive)", "setting": "[7]; ethanol", "result": "sparingly soluble"}, {"measurement": "solubility (descriptive)", "setting": "[7]; isopropyl acetate", "result": "sparingly soluble"}, {"measurement": "solubility (descriptive)", "setting": "[7]; oil (as is well established)", "result": "substantially insoluble"}, {"measurement": "solubility (descriptive)", "setting": "[7]; water (as is well established)", "result": "substantially insoluble"}, {"measurement": "solubility (descriptive)", "setting": "[7]; water", "result": "practically insoluble"}, {"measurement": "bioavailability", "setting": "[8]", "result": "60-65%"}]}
{"compound": "C[C@@H](O[C@H]1OCCN(Cc2nc(O)n(P(=O)(O)O)n2)[C@H]1c1ccc(F)cc1)c1cc(C(F)(F)F)cc(C(F)(F)F)c1", "note": "[Fosaprepitant]", "values": [{"measurement": "time for conversion to aprepitant", "setting": "[9]", "result": "less than 30 minutes"}, {"measurement": "comparison to aprepitant", "setting": "[10]", "result": "non-inferiority and bioequivalency"}]}
